Assay results from patent EP4810052A2, “HCRHR2 SELECTIVE POLYPEPTIDES” (Gubra A/S, priority 2023, dated 2026).
Read-outs that look alike come from different tables or passages of the source. Starred links: 1 amine or outer side, 2 acyl side, 3 side chain; linkers in the order of their positions; H or OH if unused. Non-standard residues stand in square brackets, D forms with d. Residues, ends and D or L forms follow the SMILES beside them. Groups on a side chain read outwards from the residue. *: point of attachment. C20 diacid = O=C(O)CCCCCCCCCCCCCCCCCCC(=O)*; γGlu = O=C(O)[C@H](CCC(=O)[*:2])N[*:1]; Nle = CCCC[C@H](N)C(=O)O; AEEA = NCCOCCOCC(=O)O

Columns and labels:
hCRHR1 = molecular target: T1, hCRHR1 (Homo sapiens, UniProt P34998); test: HTRF cAMP assay, determination of hCRHR1 potency (peptide libraries 5 conc., purified peptides 11 conc.); assay type: cell-based
T1 sequence (P34998 24-415): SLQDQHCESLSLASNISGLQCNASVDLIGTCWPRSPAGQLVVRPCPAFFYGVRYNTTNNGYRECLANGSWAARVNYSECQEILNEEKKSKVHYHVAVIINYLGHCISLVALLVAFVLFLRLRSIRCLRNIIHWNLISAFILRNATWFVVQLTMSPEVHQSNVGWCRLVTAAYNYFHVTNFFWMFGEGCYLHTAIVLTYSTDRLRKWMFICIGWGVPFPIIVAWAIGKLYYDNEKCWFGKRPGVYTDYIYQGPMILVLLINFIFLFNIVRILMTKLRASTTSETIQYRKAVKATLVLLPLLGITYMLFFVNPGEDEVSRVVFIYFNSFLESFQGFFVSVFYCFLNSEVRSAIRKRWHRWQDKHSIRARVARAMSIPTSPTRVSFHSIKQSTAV
Method in brief: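 CHO-K1 cells stably expressing human CRHR1, thawed from frozen stocks just before use, were stimulated in suspension with agonist peptides. cAMP was measured by HTRF competitive immunoassay (cryptate anti-cAMP antibody vs d2-cAMP).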

[1] = pH 7.5
[2] = Chemical stability of purified peptides (RP-UHPLC main peak purity loss); assay type: physicochemical; conditions: pH 7.5, 40°C
Experimental: Chemical stability was tested at a concentration of approximately of 1.0 mg/ml peptide in the following vehicles: 50 mM phosphate buffer pH 7.5. Dissolved samples were incubated for at least 2 h at room temperature on a rocking table. The main peak purity at time zero (T0) was determined using reversed phase chromatography. The samples were incubated at 40°C for 14 days (T14) and 28 days (T28). The samples were analyzed with reversed phase chromatography and size exclusion chromatography.
Reversed Phase chromatography was performed on a Thermo Dionex Ultimate UHPLC system with UV detection at 215 nm) and equipped with a Kinetex column (1.7 µm, C8, 100 Å, 150 x 2.1 mm (00F-4499-AN)). Analysis was performed by gradient elution with buffer A (0.1% TFA in 95:5 H2O:acetonitrile) and buffer B (0.1% TFA in 5:95 H2O: acetonitrile) at a column temperature of 50 °C (gradient used 25-55%B over 40 min. Flowrate was 0.5 mL/min. The main peak purity was determined from the integrated chromatogram as the area under the main peak relative to the total peak area. The purity loss was calculated as the difference between the T0 and T14 time point and/or as the difference between the T0 and T28 time point.
The chemical stability of selected peptides was evaluated at varying pH's at 40° C over 28 days. Samples were prepared and analysed as described in procedure with the addition of pH adjusting samples to the targets indicated below. As a comparator,r commercially available semaglutide drug product (Ozempic®, Novo Nordisk) was included in the sample set.

hCRHR2 = molecular target: T2, hCRHR2 (Homo sapiens, UniProt Q13324); test: HTRF cAMP assay, determination of hCRHR2 potency (peptide libraries 5 conc., purified peptides 11 conc.); assay type: cell-based; conditions: for Selectivity ratio (hCRHR1/ hCRHR2): hCRHR1-EC50/hCRHR2-EC50
T2 sequence (Q13324 1-411): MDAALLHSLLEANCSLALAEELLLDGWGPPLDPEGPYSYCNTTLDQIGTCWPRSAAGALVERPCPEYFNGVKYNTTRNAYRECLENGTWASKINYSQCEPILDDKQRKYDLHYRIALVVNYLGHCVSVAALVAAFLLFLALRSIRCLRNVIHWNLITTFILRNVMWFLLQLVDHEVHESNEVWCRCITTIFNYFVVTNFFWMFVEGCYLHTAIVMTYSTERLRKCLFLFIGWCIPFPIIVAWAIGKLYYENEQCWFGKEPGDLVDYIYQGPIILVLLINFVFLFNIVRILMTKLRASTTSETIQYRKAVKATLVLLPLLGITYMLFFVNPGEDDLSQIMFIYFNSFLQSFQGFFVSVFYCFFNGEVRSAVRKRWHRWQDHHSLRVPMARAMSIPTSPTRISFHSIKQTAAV
Method in brief: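 Potency was read as cAMP accumulation in a stable CHO-K1 line expressing human CRHR2, used in suspension right after thawing. Detection relied on energy transfer from antibody-bound cryptate to d2-cAMP.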

[3] = Thioflavin T fibril formation assay of purified peptides; assay type: physicochemical; conditions: pH 7.5, ThT assay
Experimental: Thioflavin T fibril formation assay: Peptides were dissolved as 267 µM in 50 mM phosphate buffer pH 7.5 for 2 h at room temperature on a rocking table. The samples were then divided into three replicates of 80 µl/well and mixed with 2 µl/well Thioflavin T (ThT)to a final concentration of 4 µM ThT in a black 384 well microplate with a clear bottom (Greiner #781096). The plate was inserted in a CLARIOstar Plus microplate reader (BMG Labtech) and fibril formation was measured as an increase in fluorescence emission at 480 nm (excitation at 450 nm) during 96 h at 40°C with cycles of 5 min rest and 5 min linearshaking at700 rpm.
Compounds were dissolved to 200 µM (ca 1.0 mg/ml) in 50 mM phosphate buffer with preparation and ThT assay performed as described in the "General procedure for determination of fibril formation of peptides." above. Furthermore, samples were adjusted to pH values as indicated below. Additional co-formulations of compounds with semaglutide were prepared by dissolving compounds to 200 µM in commercially available semaglutide drug product (Ozempic®); these co-formulations were adjusted to pH 7.4.

[4] = purified peptides, CHO-K1 cells stably expressing hCRHR1, cAMP HTRF, read-out: hCRHR1 EC50
[5] = purified peptides, CHO-K1 cells stably expressing hCRHR2, cAMP HTRF, read-out: hCRHR2 EC50

EC50 (hCRHR1; [4])	Solubility pH 7.5, target conc. =10 mg/mL (measured mg/mL) [1]	Chemical stability at pH 7.5 after 14 days at 40°C (% degradation) ([2]; 14 days, first value of cell)	Chemical stability at pH 7.5 after 28 days at 40°C (% degradation) ([2]; 28 days, second value of cell)	Selectivity ratio (hCRHR1/ hCRHR2) (hCRHR2)	EC50 (hCRHR2; [5])	Fibrillation (pH 7.5) [3]	Solubility pH 7.5, target conc. =5 mg/mL (measured mg/mL) [1]	EC50 (hCRHR1; library peptides, matched molecular pairs L vs Nle in position X^38, read-out: Potency hCRHR1 pEC50 (converted))	EC50 (hCRHR2; library peptides, matched molecular pairs L vs Nle in position X^38, read-out: Potency hCRHR2 pEC50 (converted))	SMILES
> 5000 nM	9.1 mg/mL	-0.6%	-1.2%	>1136	4.4 nM	No				CC[C@H](C)[C@H](N)C(=O)N[C@H](C(=O)N[C@@H](CC(C)C)C(=O)N[C@@H](CO)C(=O)N[C@@H](CC(C)C)C(=O)N[C@@H](CC(=O)O)C(=O)N[C@H](C(=O)N1CCC[C@H]1C(=O)N[C@H](C(=O)NCC(=O)N[C@@H](CC(C)C)C(=O)N[C@@H](CC(C)C)C(=O)N[C@@H](CCC(N)=O)C(=O)N[C@H](C(=O)N[C@@H](CC(C)C)C(=O)N[C@@H](CC(C)C)C(=O)N[C@@H](CCC(=O)O)C(=O)N[C@@H](CCC(N)=O)C(=O)N[C@@H](C)C(=O)N[C@@H](CCCNC(=N)N)C(=O)N[C@@H](C)C(=O)N[C@@H](CCCNC(=N)N)C(=O)N[C@@H](C)C(=O)N[C@@H](C)C(=O)N[C@@H](CCCNC(=N)N)C(=O)N[C@@H](CCC(=O)O)C(=O)N[C@@H](CCC(N)=O)C(=O)N[C@@H](C)C(=O)N[C@@H](CCCCNC(=O)COCCOCCNC(=O)COCCOCCNC(=O)CC[C@H](NC(=O)CC[C@H](NC(=O)CCCCCCCCCCCCCCCCCCC(=O)O)C(=O)O)C(=O)O)C(=O)N[C@H](C(=O)N[C@@H](CC(N)=O)C(=O)N[C@@H](CC(C)C)C(=O)N[C@@H](CCC(=O)O)C(=O)N[C@H](C(=O)N[C@@H](CC(C)C)C(=O)N[C@@H](C)C(=O)N[C@@H](CCC(=O)O)C(=O)N[C@H](C(N)=O)C(C)C)[C@@H](C)CC)[C@@H](C)O)[C@@H](C)CC)[C@@H](C)CC)C(C)C)C(C)C [SEQ ID NO: 12] (H-IVLSLDVPIGLLQILLEQARARAAREQAK([AEEA-AEEA-γGlu-γGlu-C20 diacid])TNLEILAEV-NH2)
> 5000 nM				>2778	1.8 nM	No	0.016 mg/mL			CC[C@H](C)[C@H](N)C(=O)N[C@H](C(=O)N[C@@H](CC(C)C)C(=O)N[C@@H](CO)C(=O)N[C@@H](CC(C)C)C(=O)N[C@@H](CC(=O)O)C(=O)N[C@H](C(=O)N1CCC[C@H]1C(=O)N[C@H](C(=O)NCC(=O)N[C@@H](CC(C)C)C(=O)N[C@@H](CC(C)C)C(=O)N[C@@H](CCC(N)=O)C(=O)N[C@H](C(=O)N[C@@H](CC(C)C)C(=O)N[C@@H](CC(C)C)C(=O)N[C@@H](CCC(=O)O)C(=O)N[C@@H](CCC(N)=O)C(=O)N[C@@H](C)C(=O)N[C@@H](CCCNC(=N)N)C(=O)N[C@@H](C)C(=O)N[C@@H](CCCNC(=N)N)C(=O)N[C@@H](C)C(=O)N[C@@H](C)C(=O)N[C@@H](CCCNC(=N)N)C(=O)N[C@@H](CCC(=O)O)C(=O)N[C@@H](CCC(N)=O)C(=O)N[C@@H](C)C(=O)N[C@@H](CCCCNC(=O)COCCOCCNC(=O)COCCOCCNC(=O)CC[C@H](NC(=O)CC[C@H](NC(=O)CCCCCCCCCCCCCCCCCCC(=O)O)C(=O)O)C(=O)O)C(=O)N[C@H](C(=O)N[C@@H](CC(N)=O)C(=O)N[C@@H](C)C(=O)N[C@@H](CCCNC(=N)N)C(=O)N[C@H](C(=O)N[C@@H](CC(C)C)C(=O)N[C@@H](C)C(=O)N[C@@H](CCCNC(=N)N)C(=O)N[C@H](C(N)=O)C(C)C)[C@@H](C)CC)[C@@H](C)O)[C@@H](C)CC)[C@@H](C)CC)C(C)C)C(C)C [SEQ ID NO: 2] (H-IVLSLDVPIGLLQILLEQARARAAREQAK([AEEA-AEEA-γGlu-γGlu-C20 diacid])TNARILARV-NH2)
								158 nM	0.1 nM	CCCC[C@H](NC(=O)[C@@H](NC(=O)[C@H](CCC(=O)O)NC(=O)[C@H](C)NC(=O)[C@H](CC(N)=O)NC(=O)[C@@H](NC(=O)[C@H](CCCCNC(=O)COCCOCCNC(=O)COCCOCCNC(=O)CC[C@H](NC(=O)CC[C@H](NC(=O)CCCCCCCCCCCCCCCCCCC(=O)O)C(=O)O)C(=O)O)NC(=O)[C@H](C)NC(=O)[C@H](CCC(N)=O)NC(=O)[C@H](CCC(=O)O)NC(=O)[C@H](CCCNC(=N)N)NC(=O)[C@H](CCC(N)=O)NC(=O)[C@H](C)NC(=O)[C@H](CCCNC(=N)N)NC(=O)[C@H](C)NC(=O)[C@H](CCCNC(=N)N)NC(=O)[C@H](C)NC(=O)[C@H](CCC(N)=O)NC(=O)[C@H](CCC(=O)O)NC(=O)[C@H](CC(C)C)NC(=O)[C@H](CC(C)C)NC(=O)[C@@H](NC(=O)[C@H](CCC(N)=O)NC(=O)[C@H](CC(C)C)NC(=O)[C@H](CC(C)C)NC(=O)CNC(=O)[C@@H](NC(=O)[C@@H]1CCCN1C(=O)[C@@H](NC(=O)[C@H](CC(=O)O)NC(=O)[C@H](CC(C)C)NC(=O)[C@H](CO)NC(=O)[C@H](CC(C)C)NC(=O)[C@@H](NC(=O)[C@@H](N)[C@@H](C)CC)C(C)C)C(C)C)[C@@H](C)CC)[C@@H](C)CC)[C@@H](C)O)[C@@H](C)CC)C(=O)N[C@@H](C)C(=O)N[C@@H](CCC(=O)O)C(=O)N[C@H](C(N)=O)[C@@H](C)CC [compound 65] (H-IVLSLDVPIGLLQILLEQARARAQREQAK([AEEA-AEEA-γGlu-γGlu-C20 diacid])TNAEI[Nle]AEI-NH2)
